# Assay results: patent US8748088B2, “Methods of monitoring treatment effectiveness in HIV-infected patients receiveing intensified HAART regimens by measuring episomal 2-LTR circles” (University of Massachusetts, priority 2009, dated 2014)
# Assays:
# HIV-1 2-LTR circles = assay: Real-time PCR quantification of episomal HIV-1 DNA (2-LTR circles) in PBMCs of HAART-suppressed patients intensified with raltegravir; type: in vivo
# From the text: (§1) A total of 69 patients with undetectable plasma viremia (viral load <50 HIV-1 RNA copies/ml) for at least one year were included in this study. All patients were on a suppressive HAART regimen that included 2 nucleoside reverse transcriptase inhibitors, and either a protease inhibitor or a non-nucleoside reverse transcriptase inhibitor. A total of 45 patients were randomized to intensify their HAART with the integrase inhibitor raltegravir for 12 weeks, and 24 patients were included as a control arm. One patient in the control group was lost to follow-up before study initiation. […]
# The samples included in this study were drawn from HIV-1 infected patients who were longitudinally monitored for up to 12 weeks. […]
# In the formation of 2-LTR circles, U3 and U5 sequences within the 5′ and 3′ LTRs ligate to form a unique U3-U5 circle junction that is not represented in other forms of viral cDNA (FIG. 1A). Therefore, 2-LTR circles were specifically measured by real-time PCR with primers flanking the 2-LTR circle junction. […]
# Real-time PCR-based quantification of HIV-1 2-LTR circles was performed as follows. […] A single-step, real-time PCR was used to quantify 2-LTR circles in a 50 ul PCR reaction mix containing 25 ul of TaqMan® Universal PCR Master Mix (Applied Biosystems), 20 ul of extrachromosomal HIV-1 DNA and primers and probe that span the 2-LTR circle junction. […]
# total HIV-1 DNA = assay: Real-time PCR quantification of total HIV-1 DNA in PBMCs of intensified patients; type: in vivo; details: throughout the 12 weeks of intensification, p=0.342 signed rank test
# From the text: as §1
# Total viral DNA forms (comprising unintegrated and integrated viral cDNA) were assayed using internal LTR primers (FIG. 2). […] Real-time PCR-based quantification of total HIV-1 DNA was performed as follows. […] A single-step real-time PCR was used to quantify total HIV-1 DNA in a 50 ul PCR reaction mix containing 25 ul of TaqMan® Universal PCR Master Mix (Applied Biosystems), 20 ul of chromosomal HIV-1 DNA and primers and probe that anneal in the 5′ and 3′ end of the R and U5 region of the LTR respectively, as has previously been described (Brussel and Sonigo, J Virol 77, 10119-10124 (2003)) using a forward primer; 5′ GG CTA ACT AGG GAA CCC ACT G 3′ (SEQ ID NO:4) and a reverse primer; 5′ GCTAGAGATTTTCCACACTGACTAA 3′ (SEQ ID NO:5). […] Amplification and calculation of copy number was determined as for 2-LTR DNA. […]
# integrated HIV-1 DNA = assay: Two-step Alu-LTR real-time PCR quantification of integrated HIV-1 DNA in PBMCs of intensified patients; type: in vivo; details: for levels of integrated HIV-1 DNA: throughout the 12 weeks of intensification, p=0.768 signed rank test
# From the text: A total of 69 patients with undetectable plasma viremia (viral load <50 HIV-1 RNA copies/ml) for at least one year were included in this study. All patients were on a suppressive HAART regimen that included 2 nucleoside reverse transcriptase inhibitors, and either a protease inhibitor or a non-nucleoside reverse transcriptase inhibitor. A total of 45 patients were randomized to intensify their HAART with the integrase inhibitor raltegravir for 12 weeks, and 24 patients were included as a control arm. One patient in the control group was lost to follow-up before study initiation. A second patient also in this group, who had two consecutive viral load measurements at weeks 12 and 24 (90 and 63 HIV-1 copies/mL respectively), was excluded for further analysis.
# HIV-1 DNA purification was isolated as previously described (Hunt et al., J Infect Dis 187, 1534-1543 (2003)) with some modifications. […]
# Real-time PCR-based quantification of integrated HIV-1 DNA was performed as follows. […] A two-step real-time PCR was used to quantitate integrated HIV-1 DNA using Alu-LTR primers as has previously been described (Brussel and Sonigo, J Virol 77, 10119-10124 (2003)). […] The fluorescence taqman probe was 5′[…] […]
# Amplification and calculation of copy number was determined as for 2-LTR DNA. […] Integrated proviral DNA was measured using LTR-Alu primers. […]
# (§2) Statistical analysis for the above-described experiments was performed as follows. […] In each group longitudinal changes of total and integrated HIV-1 and immune activation parameters were assessed through the signed rank test (paired test) comparing weeks 0 and 12, or weeks 0 and 24 respectively. Differences in proportions between groups were analyzed through the Pearson's chi square, considering the continuity correction or the Fisher's exact test, as appropriate. Within the intensified arm, differences in 2-LTR circles at weeks 2 and 4 compared to baseline were analyzed using Peto-Prentice-Wilcoxon test. […]
# [1] = test system: memory CD4+ and activated CD8+ T cells; assay: Flow cytometry analysis of lymphocyte subsets and immune activation in fresh blood; type: in vivo, HIV-1 infected patients
# Procedure: Analysis of lymphocyte subsets and immune activation was performed as follows. A total of 52 patients, 34 in the intensification group and 18 patients in the control group, had fresh blood samples available for flow cytometry analysis through the study period. Different combinations of antibodies were used to characterize different lymphocyte subsets: combination 1 was designed to evaluate naïve/memory subsets and contained CD45RA-FITC, CD31-PE, CD38-PerCP, CD3-APC-Cy7, CD4-APC and CD8-PE-Cy7; combination 2 was designed to evaluate the activation of CD8 T cells and contained HLA-DR-FITC, PD-1-PE, CD38-PerCP, CD45RO-APC, CD3-APC-Cy7 and CD8-PE-Cy7. Controls with combinations of CD3-APC-Cy7, CD4-APC and CD8-PE-Cy7 antibodies were performed for all samples. All antibodies were obtained from Becton Dickinson. Briefly, 20 ul of fresh whole blood was incubated with antibodies for 15 min at room temperature with the different antibody combinations in V-bottom 96-well plates. Red cells were lysed using the BD FACs lysing solution (Becton Dickinson), washed once with PBS and resuspended in PBS containing 1% formaldehyde. Acquisition of flow cytometry data was performed on an LSRII flow cytometer (Becton Dickinson) coupled with a HTS loader. At least 30,000 lymphocytes were collected for each sample. Analyses were performed with FlowJo software (Tree Star Inc.).
# as §2
# [2] = raltegravir-intensified group as a whole, throughout the study period (weeks 0-24)
compound,measurement,setting,value
Cc1nnc(C(=O)NC(C)(C)c2nc(C(=O)NCc3ccc(F)cc3)c(O)c(=O)n2C)o1 [raltegravir],patients with detectable 2-LTR circles (active replication revealed),"HIV-1 2-LTR circles; HAART intensified with raltegravir for 12 weeks, n=45, any time point during the study, 13/45, control 0/22, p=0.003",29%
same,change in 2-LTR circles compared to baseline,"HIV-1 2-LTR circles; intensification group, weeks 2 and 4 vs baseline (p=0.036 and p=0.023), subsequent decrease afterwards",significant and transient increase in 2-LTR circles
same,levels of total HIV-1 DNA,total HIV-1 DNA,remained stable
same,levels of total HIV-1 DNA,total HIV-1 DNA; listed as Raltegravir,did not cause significant fluctuations
same,patients from whom integrated HIV-1 DNA was amplified,"integrated HIV-1 DNA; intensified patients 39/45, any time point after initiation of the study",87%
same,levels of integrated HIV-1 DNA,integrated HIV-1 DNA,remained stable
same,levels of integrated HIV-1 DNA,integrated HIV-1 DNA; listed as Raltegravir,did not cause significant fluctuations
same,immune activation,"[1]; patients in which raltegravir impacted active replication (2-LTR+ subgroup, n=13)",normalization of immune activation
same,activated CD8+ T cells,[1]; [2],no major changes
same,memory CD4+ T cells (CD4+CD45RA-),[1]; [2],no major changes
